For assay [1], the system named is rhinovirus A2. Nature of the assay: Antiviral activity against human rhinovirus 2 assessed as reduction in viral infection in human HeLa H1 cells pretreated for 1 to 2 hrs with virus followed by cell addition measured after 48 hrs by Celltiter-Glo reagent based assay. It counts as functional, organism-based.
Assay [2] in a line: Antiviral activity against human rhinovirus 17 assessed as reduction in viral infection in human HeLa H1 cells pretreated for 1 to 2 hrs with virus followed by cell addition measured after 48 hrs by Celltiter-Glo reagent based assay. The class given is functional, Human rhinovirus B17. (In general: In ATP-based viability assays light output follows the ATP content of the culture.)

Assay [3] concerns rhinovirus A16. The experiment in a line: Antiviral activity against human rhinovirus 16 assessed as reduction in viral infection in human HeLa H1 cells pretreated for 1 to 2 hrs with virus followed by cell addition measured after 48 hrs by Celltiter-Glo reagent based assay. The class given is functional, organism-based.
The nature of assay [4]: Antiviral activity against human rhinovirus 7 assessed as reduction in viral infection in human HeLa H1 cells pretreated for 1 to 2 hrs with virus followed by cell addition measured after 48 hrs by Celltiter-Glo reagent based assay. The class given is functional, Human rhinovirus A7. The note with it: Rhinovirus A.
The test system of the next assay is rhinovirus A41. Nature of the assay: Antiviral activity against human rhinovirus 41 assessed as reduction in viral infection in human HeLa H1 cells pretreated for 1 to 2 hrs with virus followed by cell addition measured after 48 hrs by Celltiter-Glo reagent based assay. It counts as functional, organism-based. The note with it: Rhinovirus A.
Assay [5] can be described thus: Antiviral activity against human rhinovirus 100 assessed as reduction in viral infection in human HeLa H1 cells pretreated for 1 to 2 hrs with virus followed by cell addition measured after 48 hrs by Celltiter-Glo reagent based assay. It counts as functional, Human rhinovirus A100. The note with it: Rhinovirus A.
The next assay relates to rhinovirus A25. The experiment in a line: Antiviral activity against human rhinovirus 25 assessed as reduction in viral infection in human HeLa H1 cells pretreated for 1 to 2 hrs with virus followed by cell addition measured after 48 hrs by Celltiter-Glo reagent based assay. It counts as functional, organism-based. The conditions noted are these: Rhinovirus A.
Another assay concerns rhinovirus B14. Nature of the assay: Antiviral activity against human rhinovirus 14 assessed as reduction in viral infection in human HeLa H1 cells pretreated for 1 to 2 hrs with virus followed by cell addition measured after 48 hrs by Celltiter-Glo reagent based assay. It counts as functional, organism-based. The conditions noted are these: Rhinovirus B.
Assay [6] can be described thus: Antiviral activity against human rhinovirus 8 assessed as reduction in viral infection in human HeLa H1 cells pretreated for 1 to 2 hrs with virus followed by cell addition measured after 48 hrs by Celltiter-Glo reagent based assay. The note with it: Rhinovirus A. The class given is functional, Human rhinovirus A8.
The next assay has as its system rhinovirus A85. The experiment in a line: Antiviral activity against human rhinovirus 85 assessed as reduction in viral infection in human HeLa H1 cells pretreated for 1 to 2 hrs with virus followed by cell addition measured after 48 hrs by Celltiter-Glo reagent based assay. It counts as functional, organism-based. The conditions noted are these: Rhinovirus A.
Assay [7] has as its system rhinovirus A2. Nature of the assay: Antiviral activity against human rhinovirus 2 assessed as reduction in viral infection in human HeLa H1 cells after 2 to 5 days by XTT reduction assay. The class given is functional, organism-based. The note with it: Rhinovirus A. In general terms: Tetrazolium dyes change colour on reduction, which living cells bring about.
A short description of assay [8]: Antiviral activity against human rhinovirus 17 assessed as reduction in viral infection in human HeLa H1 cells after 2 to 5 days by XTT reduction assay. It counts as functional, cell-based, Human rhinovirus B17. The note with it: Rhinovirus B.
The test system of assay [9] is rhinovirus A16. Nature of the assay: Antiviral activity against human rhinovirus 16 assessed as reduction in viral infection in human HeLa H1 cells after 2 to 5 days by XTT reduction assay. It counts as functional, organism-based. The conditions noted are these: Rhinovirus A.

The values below come from ChEMBL document CHEMBL3813594, “Design and structure-activity relationships of novel inhibitors of human rhinovirus 3C protease” (Bioorg Med Chem Lett, 2016).

Molecules are shown by their SMILES.

For orientation: EC50 means the concentration that produces a half-maximal response.

For `CCOC(=O)/C=C/[C@H](C[C@@H]1CCNC1=O)NC(=O)[C@@H]1C[C@@H](Cc2ccccc2)CN1C(=O)[C@@H](NC(=O)c1cc(C)on1)C(C)C`, the 50% effective concentration (EC50) in the assay on rhinovirus A2 [1] (Rhinovirus A, HeLa H1) came to 300 nM; in assay [2] (Rhinovirus B, HeLa H1) it was 190 nM; in the assay on rhinovirus A16 [3] (Rhinovirus A, HeLa H1), 47 nM.

On to `CCOC(=O)/C=C/[C@H](C[C@@H]1CCNC1=O)NC(=O)[C@@H]1CC[C@@H](c2ccccc2)N1C(=O)[C@@H](NC(=O)c1cc(C)on1)C(C)C`, for which the concentration giving a half-maximal response (EC50) in the assay on rhinovirus A2 [1] (Rhinovirus A, HeLa H1) amounted to 1900 nM; in [2] (Rhinovirus B, HeLa H1), 150 nM; with rhinovirus A16 [3] (Rhinovirus A, HeLa H1), 260 nM.

In the case of `CCOC(=O)/C=C/[C@H](C[C@@H]1CCNC1=O)NC(=O)[C@@H]1C[C@@H](C2CCCCC2)CN1C(=O)[C@@H](NC(=O)c1cc(C)on1)C(C)C`, the EC50 in [4] stood at 47 nM; in the assay with rhinovirus A2 [1] (Rhinovirus A, HeLa H1), 46 nM; in [2] (Rhinovirus B, HeLa H1) it was 7 nM; in the assay with rhinovirus A41 it was 90 nM; in the assay with rhinovirus A16 [3] (Rhinovirus A, HeLa H1) it was 15 nM; in [5], 80 nM. Moreover, the EC50 in the assay with rhinovirus A25 turned out to be 9 nM; in the assay with rhinovirus B14, 11 nM; in assay [6] it was 22 nM; in the assay with rhinovirus A85, 94 nM.

`CCOC(=O)/C=C/[C@H](C[C@@H]1CCNC1=O)NC(=O)[C@@H]1C[C@@H](c2ccccc2)CN1C(=O)[C@@H](NC(=O)c1cc(C)on1)C(C)C`: the concentration for a half-maximal effect (EC50) in [4] turned out to be 81 nM; with rhinovirus A2 [1] (Rhinovirus A, HeLa H1), 140 nM; in [2] (Rhinovirus B, HeLa H1), 11 nM; in the assay on rhinovirus A41, 130 nM; in the assay on rhinovirus A16 [3] (Rhinovirus A, HeLa H1), 24 nM; in assay [5], 110 nM. The EC50 in the assay on rhinovirus A25 turned out to be 19 nM; in the assay on rhinovirus B14 it was 13 nM; in assay [6], 37 nM; in the assay with rhinovirus A85, 250 nM.

As for `CCOC(=O)/C=C/[C@H](C[C@@H]1CCNC1=O)NC(=O)[C@@H]1CCCN1C(=O)[C@@H](NC(=O)c1cc(C)on1)C(C)C`, the concentration for a half-maximal effect (EC50) in assay [4] came out at 1300 nM; in the assay on rhinovirus A2 [1] (Rhinovirus A, HeLa H1), 1390 nM; in assay [2] (Rhinovirus B, HeLa H1), 230 nM; with rhinovirus A41, 1450 nM; with rhinovirus A16 [3] (Rhinovirus A, HeLa H1), 400 nM; in assay [5] it was 1800 nM. The EC50 with rhinovirus A25 amounted to 1890 nM; in the assay on rhinovirus B14, 470 nM; in assay [6] it was 590 nM; in the assay with rhinovirus A85 it was 4200 nM.

For `CCOC(=O)/C=C/[C@H](C[C@@H]1CCNC1=O)NC(=O)[C@@H]1C[C@@H](CC#N)CN1C(=O)[C@@H](NC(=O)c1cc(C)on1)C(C)C`, the EC50 with rhinovirus A2 [1] (Rhinovirus A, HeLa H1) came to 430 nM; in assay [2] (Rhinovirus B, HeLa H1), 500 nM; with rhinovirus A16 [3] (Rhinovirus A, HeLa H1), 199 nM.

In the case of `CCOC(=O)/C=C/[C@H](C[C@@H]1CCNC1=O)NC(=O)[C@@H]1C[C@@H](Oc2ccccc2)CN1C(=O)[C@@H](NC(=O)c1cc(C)on1)C(C)C`, the EC50 was found to be 270 nM in the assay on rhinovirus A2 [1] (Rhinovirus A, HeLa H1); 260 nM in [2] (Rhinovirus B, HeLa H1); 59 nM with rhinovirus A16 [3] (Rhinovirus A, HeLa H1).

Turning to `CCOC(=O)/C=C/[C@H](C[C@@H]1CCNC1=O)NC(=O)[C@@H]1[C@@H](c2ccccc2)CCN1C(=O)[C@@H](NC(=O)c1cc(C)on1)C(C)C`, the EC50 was 8300 nM in assay [4]; 8400 nM in the assay on rhinovirus A2 [1] (Rhinovirus A, HeLa H1); 700 nM in assay [2] (Rhinovirus B, HeLa H1); 4500 nM in the assay on rhinovirus A41; 3000 nM in the assay on rhinovirus A16 [3] (Rhinovirus A, HeLa H1); 6500 nM in assay [5]. The EC50 was 4500 nM in the assay with rhinovirus A25, 2500 nM in the assay with rhinovirus B14, 3500 nM in assay [6] and 9300 nM in the assay on rhinovirus A85.

As to `CCOC(=O)/C=C/[C@H](C[C@@H]1CCNC1=O)NC(=O)[C@@H]1[C@@H](c2ccccc2)CN1C(=O)[C@@H](NC(=O)c1cc(C)on1)C(C)C` (stereo in doubt; 10), the EC50 in assay [4] worked out at 420 nM; in the assay with rhinovirus A2 [1] (hela h1), 300 nM; in [2] (hela h1), 90 nM; with rhinovirus A41 it was 530 nM; in the assay with rhinovirus A16 [3] (hela h1) it was 300 nM; in assay [5], 470 nM. The half-maximal effective concentration (EC50) was 100 nM with rhinovirus A25, 91 nM with rhinovirus B14, 170 nM in assay [6] and 1140 nM in the assay with rhinovirus A85.

On to `CCOC(=O)/C=C/[C@H](C[C@@H]1CCNC1=O)NC(=O)[C@@H]1[C@@H](c2ccccc2)CN1C(=O)[C@@H](NC(=O)c1cc(C)on1)C(C)C` (stereo in doubt; 11), for which the EC50 (with rhinovirus A2 [1] (hela h1); in assay [2] (hela h1); with rhinovirus A16 [3] (hela h1)) was over 50000 nM throughout.

With `CCOC(=O)/C=C/[C@H](C[C@@H]1CCNC1=O)NC(=O)[C@@H](CC(=O)[C@@H](NC(=O)c1cc(C)on1)C(C)C)Cc1ccc(F)cc1` [RUPINTRIVIR], the concentration giving a half-maximal response (EC50) in the assay with rhinovirus A2 [7] is 12 nM; in assay [8] it was 14 nM; with rhinovirus A16 [9] it was 14 nM.
